Test results: US20090098050A1, “CALCIUM BINDING PEPTIDES” (THE REGENTS OF THE UNVERSITY OF CALIFORNIA, priority 2005, published 2009)

Key:
[1] = Binding to inorganic phosphate precipitates (relative fluorescence); settings: 12.5 μM labeled peptide, ten minutes, about 0.5% (w/v) salt
Experimental: FIG. 10: Relative levels of 8DSS peptide binding to various inorganic phosphate precipitates. 100 mM sodium phosphate (pH 7.5) was combined with 100 mM solutions of MgCl2, CaCl2, MnCl2, CoCl2, NiSO4, CuSO4, and SrCl2, respectively. Suspensions were made of each phosphate salt at a concentration of approximately 0.5% (w/v) in the presence of 12.5 μM 5(6)-carboxyfluorescein-labeled 8DSS peptide. After a ten minute incubation at room temperature, samples were washed and imaged by fluorescence microscopy. The intensity of the fluorescent staining of the inorganic phosphate particles in each sample was assessed by measuring the pixel intensity values using the GIMP (www.gimp.org) as described in Example 11. Normalized fluorescence values are plotted here. […] On the Y-axis, the relative fluorescence intensity values are plotted.
Phosphate salts of magnesium, calcium, manganese, cobalt, nickel, copper, and strontium were prepared by combining 100 mM sodium phosphate (pH 7.5) with 100 mM solutions of the chloride or sulfate salts of the aforementioned metal ions (MgCl2, CaCl2, MnCl2, CoCl2, NiSO4, CuSO4, and SrCl2, respectively). […] Each sample was incubated for ten minutes at room temperature, then washed twice with a solution of 50 mM HEPES pH 7.0 and 10 mM NaCl, resuspended in the same buffer, and imaged by fluorescence microscopy. […]

[2] = Tissue specific binding of DSS peptides and variants in human teeth (CLSM); settings: 12.5 μM labeled peptide
Experimental: FIG. 8: Fluorescence micrographs showing tissue specificity in the binding of DSS peptides and variants. Adult human teeth were exposed to 12.5 μM 5(6)-carboxyfluorescein-labeled peptide without demineralization, washed extensively, and imaged by CLSM. For each section, multiple scans were collected and assembled in an automated mode to generate panels of images representing an area of 13×13 mm, sufficient in most cases to encompass the whole section. The peptides used for each section are labeled beneath each panel, and within each panel the tooth is oriented with the root toward the top of the image and the crown toward the bottom. Tissue layers are labeled as follows: RTD=Root Tip Dentin; CPD=Circumpulpal Dentin; MD=Mantle Dentin; P=Pulp Cavity Wall; DEJ=Dentin-Enamel Junction; E=Enamel; BE=Basal Enamel; CE=Cortical Enamel; CL=Carious Lesion; PB=Periodontal Bone.
In order to investigate the tissue specificity of DSS peptide binding to tooth tissue, sections of human teeth were exposed to DSS peptides and variants, then imaged by CLSM as described in Example 2. The peptides utilized for these experiments were 8DSS, 8ASS, 8DAA, 8NAA, 4DSS, 4ESS, 4NSS, 4DTT, 4ETT, 4NTT, and 6DSS. Sagittal sections of human teeth extracted during normal clinical practice were polished and then incubated for ten minutes in a solution of the appropriate 5(6) carboxyfluorescein-labeled peptide (12.5 μM) containing 10 mM NaCl and 50 mM HEPES, pH 7.0. Control samples were prepared without peptide. Samples were washed extensively after treatment and imaged by CLSM using blue laser illumination (λ=488 nm) and a FITC emission filter, with identical camera and microscope settings for each sample. For each section, multiple scans were collected and assembled in an automated mode to generate panels of images representing an area of 13×13 mm, sufficient in most cases to encompass the whole section. […] Significant binding was also seen to the edges of the pulp cavity.

[3] = Preferential binding to carious lesions in teeth (CLSM); parameters: species or system human; settings: labeled peptide, settings optimized per sample
Experimental: FIG. 9: Fluorescence micrographs showing specific binding of DSS peptides and variants to carious lesions in teeth. Adult human teeth were exposed to 12.5 uM 5(6)-carboxyfluorescein-labeled peptide without demineralization, washed extensively, and imaged by CLSM. Microscope and camera settings were optimized separately for each sample. […] White traces on the right side of each panel identify the position of the tooth surface, while arrows indicate the position of the stained lesion.
Sections of human teeth containing obvious carious lesions, which consist of demineralized enamel, were polished and exposed to 5(6)-carboxyfluorescein-labeled DSS peptides and variants using the protocol described in Example 2. The sections were washed extensively and imaged by CLSM using blue laser illumination (λ=488 nm) and a FITC emission filter, with microscope and camera settings adjusted for each sample to optimize the signal detected from each peptide. The images were examined to identify the relative levels of peptide binding in healthy versus carious tissue. […] Given their ability to remineralize at sites of enamel degradation (Example 6), they can also be used to initiate remineralization at sites of enamel degradation such as caries or injury sites without causing inappropriate nucleation on healthy tissue surfaces.

Substance: 8DSS: peptide containing eight Asp-Ser-Ser (DSS) repeats, SEQ ID NO:15 (DSSDSSDSSDSSDSSDSSDSSDSS; calcium binding peptide containing eight DSS repeats, 8DSS)
- Fluorescent staining of CaHPO4 and SrHPO4 aggregates [1]: highest levels of staining
- Fluorescent staining of NiHPO4 aggregates [1]: small level of staining
- Tissue binding pattern in healthy tooth section ([2]; nondemineralized teeth): bound primarily to the mantle dentin
- Level of binding (staining) to tooth surfaces ([2]; ten minutes, identical settings): greatest levels of staining
- Specificity of binding to carious lesions versus surrounding healthy enamel [3]: highly specific binding to carious lesions
- Strength of staining of carious lesions [3]: exceptionally strong staining of carious lesions
